According to US20020137929A1, “1 - (3-heterocyclylphenyl) isothiourea, -isourea, -guanidine and -amidine herbicidal agents” (Intellectual Property Department, BASF Aktiengesellschaft, priority 1998, published 2002):

Columns and labels:
ABUTH (Velvetleaf) = assay: Postemergence herbicidal evaluation; format: in vivo, Abutilon theophrasti; conditions: postemergence
Procedure, shortened: (§1)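 First, seedlings were raised for around two weeks. Next, test material in 50/50 acetone/water containing 0.5% TWEEN 20 was sprayed through a nozzle at 40 psi, equivalent to about 0.0156–0.500 kg/ha. Finally, after 4–5 weeks in the greenhouse, plants were rated 0–9.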

MOOVA (Monochoria) = assay: Preemergence weed control under flooded paddy conditions; format: in vivo, Monochoria vaginalis; conditions: rated 3-4 weeks after treatment
Procedure, shortened: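 First, seeds or propagules go into the top 0.5 cm of silt loam; next, water is held 1.5 to 3 cm over the soil; then compound (50/50 acetone/water) is pipetted into it at about 0.0313 to 0.500 kg/ha; finally plants are rated visually 0-9 after three to four weeks.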

[1] = test system: ECHORC (Watergrass (Calif.)); assay: Postemergence weed control under flooded paddy conditions; format: in vivo, Echinochloa oryzoides; conditions: postemergence weeds, rated 3 to 4 weeks after treatment
Procedure, shortened: (§2)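 Weeds 3 to 5 cm tall and rice seedlings at the 1.5 to 2.5 leaf stage were flooded, with water held 1.5 to 3 cm above the soil. Compounds in 50/50 v/v aqueous/acetone went into the flood water at about 0.0313 to 0.500 kg/ha. Visual 0-9 ratings versus control were made 3 to 4 weeks later.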

SETVI (Foxtail, Green) = assay: Preemergence herbicidal evaluation; format: in vivo, Setaria viridis; conditions: rated 4-5 weeks after treatment; for SETVI rating: preemergence, 0-9 scale
Procedure, shortened: (§3)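 Scores (0–9) reflect visual comparison with control plants for stand, vigor, malformation, size and chlorosis. Compound was applied to the soil after sowing, before emergence, as an aqueous acetone spray (about 0.0156–0.500 kg/ha), and cups were kept in a greenhouse for 4–5 weeks.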

CYPIR (Rice Flatsedge) = assay: Postemergence weed control under flooded paddy conditions; format: in vivo, Cyperus iria; conditions: postemergence weeds, rated 3 to 4 weeks after treatment
Procedure, shortened: as §2

ECHCG (Barnyardgrass) = assay: Preemergence herbicidal evaluation; format: in vivo, Echinochloa crus-galli; conditions: rated 4-5 weeks after treatment; for ECHCG rating: preemergence, 0-9 scale
Procedure, shortened: as §3

[2] = test system: IPOHE (Morningglory, Ivyleaf); assay: Preemergence herbicidal evaluation; format: in vivo, Ipomoea hederacea; conditions: rated 4-5 weeks after treatment; for IPOHE rating: preemergence, 0-9 scale
Procedure, shortened: as §3

ORYSAT (Rice, Tebonnet) = assay: Preemergence herbicidal evaluation; format: in vivo, Oryza sativa, (L.) Tebonnet; conditions: rated 4-5 weeks after treatment; for ORYSAT rating: preemergence, 0-9 scale
Procedure, shortened: as §3

[3] = test system: CHEAL (Lambsquarters, Common); assay: Preemergence herbicidal evaluation; format: in vivo, Chenopodium album; conditions: rated 4-5 weeks after treatment; for CHEAL rating: preemergence, 0-9 scale
Procedure, shortened: as §3

[4] = test system: TRZAWR (Wheat, Winter, cv Riband); assay: Preemergence herbicidal evaluation; format: in vivo, Triticum aestivum; conditions: rated 4-5 weeks after treatment; for TRZAWR rating: preemergence, 0-9 scale
Procedure, shortened: as §3

[5] = test system: TRZAWR (Wheat, Winter, cv Riband); assay: Postemergence herbicidal evaluation; format: in vivo, Triticum aestivum; conditions: postemergence
Procedure, shortened: as §1

[6] = test system: ECHORC (Watergrass (Calif.)); assay: Preemergence weed control under flooded paddy conditions; format: in vivo, Echinochloa oryzoides; conditions: rated 3-4 weeks after treatment
Procedure, shortened: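 Flooded-pot preemergence screen with silt loam and seeds in the upper 0.5 cm. Dose about 0.0313 to 0.500 kg/ha, delivered into flood water; visual 0-9 score after 3 to 4 weeks.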

[7] = test system: IPOHE (Morningglory, Ivyleaf); assay: Postemergence herbicidal evaluation; format: in vivo, Ipomoea hederacea; conditions: postemergence
Procedure, shortened: as §1

C=CCN1C(=O)C(CC(=O)OC(C)C)SC1=Nc1cc(-n2c(=O)cc(C(F)(F)F)n(C)c2=O)c(F)cc1Cl (centres unmarked) [Compound 66, Isopropyl 3-allyl-2-{{2-chloro-5-[3,6-dihydro-3-methyl-2,6-dioxo-4-(trifluoromethyl)-1(2H)-pyrimidinyl]-4-fluorophenyl}imino}-4-oxo-5-thiazolidineacetate]
ABUTH herbicidal rating (ABUTH (Velvetleaf); rate 0.0158 kg/ha): 9.0
ABUTH herbicidal rating (ABUTH (Velvetleaf); rate 0.0313 kg/ha): 9.0
ABUTH herbicidal rating (ABUTH (Velvetleaf); rate 0.0625 kg/ha): 9.0
ABUTH herbicidal rating (ABUTH (Velvetleaf); rate 0.1250 kg/ha): 9.0
MOOVA herbicidal effect rating (MOOVA (Monochoria); 0.0313 kg/ha): 9.0
MOOVA herbicidal effect rating (MOOVA (Monochoria); 0.0625 kg/ha): 9.0
MOOVA herbicidal effect rating (MOOVA (Monochoria); 0.1250 kg/ha): 9.0
MOOVA herbicidal effect rating (MOOVA (Monochoria); 0.2500 kg/ha): 9.0
Herbicidal rating ECHORC ([1]; Rate 0.0313 kg/ha): 7.0
Herbicidal rating ECHORC ([1]; Rate 0.0625 kg/ha): 7.0
Herbicidal rating ECHORC ([1]; Rate 0.1250 kg/ha): 9.0
Herbicidal rating ECHORC ([1]; Rate 0.2500 kg/ha): 9.0
Preemergence herbicidal rating SETVI (SETVI (Foxtail, Green); rate 0.0156 kg/ha): 0.0
Preemergence herbicidal rating SETVI (SETVI (Foxtail, Green); rate 0.0313 kg/ha): 0.5
Preemergence herbicidal rating SETVI (SETVI (Foxtail, Green); rate 0.0625 kg/ha): 0.5
Preemergence herbicidal rating SETVI (SETVI (Foxtail, Green); rate 0.1250 kg/ha): 6.0
Preemergence herbicidal rating SETVI (SETVI (Foxtail, Green); rate 0.2500 kg/ha): 7.5
Preemergence herbicidal rating SETVI (SETVI (Foxtail, Green); rate 0.5000 kg/ha): 9.0
Herbicidal rating CYPIR (CYPIR (Rice Flatsedge); Rate 0.0313 kg/ha): 6.0
Herbicidal rating CYPIR (CYPIR (Rice Flatsedge); Rate 0.0625 kg/ha): 6.0
Herbicidal rating CYPIR (CYPIR (Rice Flatsedge); Rate 0.1250 kg/ha): 7.0
Herbicidal rating CYPIR (CYPIR (Rice Flatsedge); Rate 0.2500 kg/ha): 7.0
Preemergence herbicidal rating ECHCG (ECHCG (Barnyardgrass); rate 0.0156 kg/ha): 0.0
Preemergence herbicidal rating ECHCG (ECHCG (Barnyardgrass); rate 0.0313 kg/ha): 0.0
Preemergence herbicidal rating ECHCG (ECHCG (Barnyardgrass); rate 0.0625 kg/ha): 0.5
Preemergence herbicidal rating ECHCG (ECHCG (Barnyardgrass); rate 0.1250 kg/ha): 0.5
Preemergence herbicidal rating ECHCG (ECHCG (Barnyardgrass); rate 0.2500 kg/ha): 3.0
Preemergence herbicidal rating ECHCG (ECHCG (Barnyardgrass); rate 0.5000 kg/ha): 9.0
Preemergence herbicidal rating IPOHE ([2]; rate 0.0156 kg/ha): 0.0
Preemergence herbicidal rating IPOHE ([2]; rate 0.0313 kg/ha): 0.0
Preemergence herbicidal rating IPOHE ([2]; rate 0.0625 kg/ha): 0.5
Preemergence herbicidal rating IPOHE ([2]; rate 0.1250 kg/ha): 3.0
Preemergence herbicidal rating IPOHE ([2]; rate 0.2500 kg/ha): 6.0
Preemergence herbicidal rating IPOHE ([2]; rate 0.5000 kg/ha): 9.0
Preemergence herbicidal rating ORYSAT (ORYSAT (Rice, Tebonnet); rate 0.0156 kg/ha): 0.0
Preemergence herbicidal rating ORYSAT (ORYSAT (Rice, Tebonnet); rate 0.0313 kg/ha): 0.0
Preemergence herbicidal rating ORYSAT (ORYSAT (Rice, Tebonnet); rate 0.0625 kg/ha): 0.5
Preemergence herbicidal rating ORYSAT (ORYSAT (Rice, Tebonnet); rate 0.1250 kg/ha): 0.5
Preemergence herbicidal rating ORYSAT (ORYSAT (Rice, Tebonnet); rate 0.2500 kg/ha): 2.5
Preemergence herbicidal rating ORYSAT (ORYSAT (Rice, Tebonnet); rate 0.5000 kg/ha): 8.0
Preemergence herbicidal rating CHEAL ([3]; rate 0.0156 kg/ha): 4.0
Preemergence herbicidal rating CHEAL ([3]; rate 0.0313 kg/ha): 9.0
Preemergence herbicidal rating CHEAL ([3]; rate 0.0625 kg/ha): 9.0
Preemergence herbicidal rating CHEAL ([3]; rate 0.1250 kg/ha): 9.0
Preemergence herbicidal rating CHEAL ([3]; rate 0.2500 kg/ha): 9.0
Preemergence herbicidal rating CHEAL ([3]; rate 0.5000 kg/ha): 9.0
Preemergence herbicidal rating TRZAWR ([4]; rate 0.0156 kg/ha): 0.0
Preemergence herbicidal rating TRZAWR ([4]; rate 0.0313 kg/ha): 0.0
Preemergence herbicidal rating TRZAWR ([4]; rate 0.0625 kg/ha): 0.5
Preemergence herbicidal rating TRZAWR ([4]; rate 0.1250 kg/ha): 0.5
Preemergence herbicidal rating TRZAWR ([4]; rate 0.2500 kg/ha): 1.0
Preemergence herbicidal rating TRZAWR ([4]; rate 0.5000 kg/ha): 4.0
TRZAWR herbicidal rating ([5]; rate 0.0158 kg/ha): 3.5
TRZAWR herbicidal rating ([5]; rate 0.0313 kg/ha): 7.0
TRZAWR herbicidal rating ([5]; rate 0.0625 kg/ha): 8.0
TRZAWR herbicidal rating ([5]; rate 0.1250 kg/ha): 7.5
ECHORC herbicidal effect rating ([6]; 0.0313 kg/ha): 7.0
ECHORC herbicidal effect rating ([6]; 0.0625 kg/ha): 7.0
ECHORC herbicidal effect rating ([6]; 0.1250 kg/ha): 9.0
ECHORC herbicidal effect rating ([6]; 0.2500 kg/ha): 9.0
IPOHE herbicidal rating ([7]; rate 0.0158 kg/ha): 9.0
IPOHE herbicidal rating ([7]; rate 0.0313 kg/ha): 9.0
IPOHE herbicidal rating ([7]; rate 0.0625 kg/ha): 9.0
IPOHE herbicidal rating ([7]; rate 0.1250 kg/ha): 9.0

CN1C(=O)C(CC(N)=O)SC1=Nc1cc(-n2c(=O)cc(C(F)(F)F)n(C)c2=O)c(F)cc1Cl (centres unmarked) [Compound 92, 2-{{2-Chloro-5-[3,6-dihydro-3-methyl-2,6-dioxo-4-(trifluoromethyl)-1(2H)-pyrimidinyl]-4-fluorophenyl}imino}-3-methyl-4-oxo-5-thiazolidineacetamide]
ABUTH herbicidal rating (ABUTH (Velvetleaf); rate 0.0158 kg/ha): 9.0
ABUTH herbicidal rating (ABUTH (Velvetleaf); rate 0.0315 kg/ha): 9.0
ABUTH herbicidal rating (ABUTH (Velvetleaf); rate 0.0630 kg/ha): 9.0
MOOVA herbicidal effect rating (MOOVA (Monochoria); 0.0313 kg/ha): 9.0
MOOVA herbicidal effect rating (MOOVA (Monochoria); 0.0625 kg/ha): 9.0
MOOVA herbicidal effect rating (MOOVA (Monochoria); 0.1250 kg/ha): 9.0
MOOVA herbicidal effect rating (MOOVA (Monochoria); 0.2500 kg/ha): 9.0
Herbicidal rating ECHORC ([1]; Rate 0.0313 kg/ha): 0.0
Herbicidal rating ECHORC ([1]; Rate 0.0625 kg/ha): 0.0
Herbicidal rating ECHORC ([1]; Rate 0.1250 kg/ha): 2.0
Herbicidal rating ECHORC ([1]; Rate 0.2500 kg/ha): 3.0
SETVI rating (SETVI (Foxtail, Green); 0.0156 kg/ha): 0.0
SETVI rating (SETVI (Foxtail, Green); 0.0313 kg/ha): 0.0
SETVI rating (SETVI (Foxtail, Green); 0.0625 kg/ha): 0.0
SETVI rating (SETVI (Foxtail, Green); 0.1250 kg/ha): 0.0
SETVI rating (SETVI (Foxtail, Green); 0.2500 kg/ha): 9.0
Herbicidal rating CYPIR (CYPIR (Rice Flatsedge); Rate 0.0313 kg/ha): 3.0
Herbicidal rating CYPIR (CYPIR (Rice Flatsedge); Rate 0.0625 kg/ha): 3.0
Herbicidal rating CYPIR (CYPIR (Rice Flatsedge); Rate 0.1250 kg/ha): 5.0
Herbicidal rating CYPIR (CYPIR (Rice Flatsedge); Rate 0.2500 kg/ha): 7.0
ECHCG rating (ECHCG (Barnyardgrass); 0.0156 kg/ha): 0.0
ECHCG rating (ECHCG (Barnyardgrass); 0.0313 kg/ha): 0.0
ECHCG rating (ECHCG (Barnyardgrass); 0.0625 kg/ha): 0.0
ECHCG rating (ECHCG (Barnyardgrass); 0.1250 kg/ha): 0.0
ECHCG rating (ECHCG (Barnyardgrass); 0.2500 kg/ha): 0.0
IPOHE rating ([2]; 0.0156 kg/ha): 0.0
IPOHE rating ([2]; 0.0313 kg/ha): 0.0
IPOHE rating ([2]; 0.0625 kg/ha): 0.0
IPOHE rating ([2]; 0.1250 kg/ha): 9.0
IPOHE rating ([2]; 0.2500 kg/ha): 9.0
ORYSAT rating (ORYSAT (Rice, Tebonnet); 0.0156 kg/ha): 0.0
ORYSAT rating (ORYSAT (Rice, Tebonnet); 0.0313 kg/ha): 0.0
ORYSAT rating (ORYSAT (Rice, Tebonnet); 0.0625 kg/ha): 0.0
ORYSAT rating (ORYSAT (Rice, Tebonnet); 0.1250 kg/ha): 0.0
ORYSAT rating (ORYSAT (Rice, Tebonnet); 0.2500 kg/ha): 5.0
CHEAL rating ([3]; 0.0156 kg/ha): 9.0
CHEAL rating ([3]; 0.0313 kg/ha): 9.0
CHEAL rating ([3]; 0.0625 kg/ha): 9.0
CHEAL rating ([3]; 0.1250 kg/ha): 9.0
CHEAL rating ([3]; 0.2500 kg/ha): 9.0
TRZAWR rating ([4]; 0.0156 kg/ha): 0.0
TRZAWR rating ([4]; 0.0313 kg/ha): 0.0
TRZAWR rating ([4]; 0.0625 kg/ha): 0.0
TRZAWR rating ([4]; 0.1250 kg/ha): 0.0
TRZAWR rating ([4]; 0.2500 kg/ha): 2.0
TRZAWR herbicidal rating ([5]; rate 0.0158 kg/ha): 5.0
TRZAWR herbicidal rating ([5]; rate 0.0315 kg/ha): 6.0
TRZAWR herbicidal rating ([5]; rate 0.0630 kg/ha): 6.5
ECHORC herbicidal effect rating ([6]; 0.0313 kg/ha): 0.0
ECHORC herbicidal effect rating ([6]; 0.0625 kg/ha): 0.0
ECHORC herbicidal effect rating ([6]; 0.1250 kg/ha): 2.0
ECHORC herbicidal effect rating ([6]; 0.2500 kg/ha): 3.0
IPOHE herbicidal rating ([7]; rate 0.0158 kg/ha): 9.0
IPOHE herbicidal rating ([7]; rate 0.0315 kg/ha): 9.0
IPOHE herbicidal rating ([7]; rate 0.0630 kg/ha): 9.0
